Source: US7704686B2, “Methods of identifying immunoregulatory agents, immunoregulatory agents, and uses thereof” (Toudai TLO, Ltd., priority 2003, dated 2010)

Columns and labels:
Assay type in all cases: cell-based, human
caveolin-1 = assay: Western blot of caveolin-1 in siRNA-transfected monocytes; conditions: 48 hrs after transfection, HVJ-E vector
Method: Lysates were generated with RIPA lysis buffer (1% NP-40, 0.5% sodium deoxycholate, 0.1% SDS, 5 mM EDTA, 10 mM Tris-HCl (pH 7.4), 0.15 M NaCl, 1 mM PMSF, 0.5 mM NaF, 10 μg/ml aprotinin and 0.02 mM Na3VO4) from 1.0×10^7 of THP-1 cells incubated with recombinant soluble CD26 (rsCD26) or 1.0×10^7 of TT-loaded monocytes stimulated with rsCD26-coated beads. Then, lysates were clarified by 15,000×g for 30 min. Immunoprecipitates (IPs) were performed by incubating lysates with 2 μg of control immunoglobulins (Ig) and protein G-sepharose beads (Amersham Pharmacia) at 4° C. for 1 h. After centrifugation, supernatants were incubated with 2 μg of specific Ig at 4° C. for 2 h, followed by addition of protein G-sepharose beads for an overnight incubation. After washing four times with RIPA lysis buffer, beads were submitted to SDS-PAGE and Western blot analysis.
To design target-specific siRNA duplexes, the present inventors selected sequences of the type AA(N19) (N, any nucleotide) from the open reading frame of human caveolin-1 (accession number=NM 001753) (Elbashir, et al., 2001). Moreover, the inventors added the sequences to the 2-nucleotide 3′ overhangs of 2′-deoxythymidine (dTdT), in order to generate a symmetric duplex with respect to the sequence composition of the sense and antisense 3′ overhangs. These symmetric 3′ overhangs were reported to help to ensure that the siRNA were formed with approximately equal ratios of sense and antisense target RNA-cleaving siRNA (Elbashir, et al., 2001). Therefore, the present inventors selected two target sequences from 81 to 101 (ss1) and […] (ss2) downstream of the start codon of caveolin-1 mRNA (sense1 siRNA (ss1-siRNA): 5′[…] CAGACdTdT (SEQ ID NO: 6), and sense2 siRNA (ss2-siRNA): 5′ AAGGAGA […] dTdT (SEQ ID NO: 7)). Moreover, mis-siRNA at 4 nucleotides was prepared to examine non-specific effects of siRNA duplexes (mis-siRNA: 5′ […] GCAGACdTdT (SEQ ID NO: 8)). To visualize the efficiency of transfection, the inventors also prepared Texas red-conjugated missense siRNA (mis-siRNA-TR). […]

CD86 = assay: Flow cytometry of surface CD86 on TT-loaded monocytes stimulated with CD26-coated beads; conditions: siRNA-transfected monocytes, stimulated with CD26 wt-coated beads
Method: Freshly purified monocytes were cultured in Macrophage-SFM media for 24 h to diminish the effect of serum, and were preincubated with TT at a concentration of 0.5 μg/ml for an additional 24 h. After being washed with PBS, 1.0×10^6 of TT-loaded monocytes were stimulated for indicated periods with […] particles of polystyrene latex beads (Molecular Probes) coated with rsCD26 wt or rsCD26 del 201-211 (1.0 μg/ml). Stimulated monocytes were subjected to confocal laser microscopy, immunoprecipitation assay, Western blotting analysis, or flow cytometry (FCM).
In experiments assessing the expression of CD86 on purified monocytes after preincubation with or without TT (0.5 μg/ml) for 24 hours, following incubation with rsCD26-coated beads for 24 h, FITC-conjugated CD86 mAb (10 μg/ml) were used with PE-conjugated anti-CD14 (10 μg/ml) and Cy Chrome-conjugated CD45 (10 μg/ml) to gate exclusively on the monocyte population. In experiments assessing the effect of siRNA against caveolin-1 in monocytes, purified monocytes were transfected with siRNA as described below, following incubation with rsCD26-coated beads for 24 h, and stained as described above.
(§1) Flow-cytometric analysis of 10,000 viable cells was conducted on Becton-Dickinson FACScalibur. Each experiment was repeated at least three times, and the results were provided in the form of a histogram of a representative experiment, or increased mean percent±standard error (SE) of mean-fluorescent intensity (MFI), compared to control or untreated cells.
To design target-specific siRNA duplexes, the present inventors selected sequences of the type AA(N19) (N, any nucleotide) from the open reading frame of human caveolin-1 (accession number=NM 001753) (Elbashir, et al., 2001). Moreover, the inventors added the sequences to the 2-nucleotide 3′ overhangs of 2′-deoxythymidine (dTdT), in order to generate a symmetric duplex with respect to the sequence composition of the sense and antisense 3′ overhangs. […]

[1] = test system: caveolin-1 on cell surface of monocytes; assay: Flow cytometric detection of cell surface caveolin-1 on monocytes; conditions: Filipin 1.0 μg/ml preincubation 30 min, then with or without TT
Method: For assessment of cell surface caveolin-1 exposure, after purified monocytes were treated with TT (0.5 μg/ml) for 0, 6, 12, 24, and 48 h, cells were washed with ice-cold PBS three times, and stained with anti-caveolin-1 antibody (5 μg/ml) for 60 min at 4° C., followed by staining with FITC conjugated anti-rabbit Ig antibody (1:200) for 60 min at 4° C. To disturb caveolae, purified monocytes were treated with Filipin (1.0 μg/ml, Sigma-Aldrich) for 30 min at 37° C. Cells were then subjected to TT loading and to staining caveolin-1 as described above.
as §1

[2] = test system: conjugation of activated T cells and TT-loaded monocytes; assay: T cell-APC conjugation assay; conditions: monocytes preincubated with Filipin 30 min, then with or without TT
Method: For T cell-APC conjugation assay as described elsewhere (Lee, et al., 2002), 1.0×10^5 of activated T cells were mixed with 1.0×10^5 of purified monocytes that had been pulsed with or without TT (0.5 μg/ml for indicated time periods), with further centrifugation. Thirty minutes later, cell mixtures were attached to microslide glass (Matsunami Glass Inc., Tokyo, Japan) coated with poly-L-lysine, and fixed with 4% paraformaldehyde in PBS for 15 min at room temperature. Cells were blocked with mouse and rabbit Ig isotypes (1 μg/ml) for 30 min at 4° C., followed by incubation with anti-CD26 mAb and anti-caveolin-1 rabbit pAb (each of 10 μg/ml) for 60 min at 4° C., then washed with ice-cold PBS twice and incubated with FITC conjugated anti-mouse Ig and Texas red conjugated anti-rabbit Ig antibodies (1:200) for 60 min at 4° C. Cells were mounted in coverslips with Antifade Prolong kit. Conjugates were first identified by direct observation under differential interference contrast and then confirmed by detecting the green fluorescence of anti-CD26 mAb in T cells and the red fluorescence of anti-caveolin-1 pAb in monocytes. The proportion of T cell-APC conjugation was calculated by random choice of 500 different cells in a coverslips from five independent experiments. […]

| Compound | caveolin-1 expression in monocytes (knock down) (caveolin-1) | effect on CD86 upregulation in TT-loaded monocytes (CD86) | caveolin-1 on cell surface of monocytes [1] | T cell-monocyte cell conjugation [2] |
| --- | --- | --- | --- | --- |
| 5′ UACAAGAAGGGCAUG GCAGACdTdT [mismatched siRNA] | not significantly knocked down | did not exhibit this inhibitory effect | – | – |
| CCCCC[C@@H](O)[C@H]1C(=O)O[C@H](C)[C@@H](O)/C=C/C=C/C=C/C=C/C=C(\C)[C@@H](O)C[C@H](O)C[C@H](O)C[C@H](O)C[C@H](O)C[C@H](O)C[C@@H]1O [Filipin] | – | – | not detected | not detected |
| 5′ AAGGAGA UCGACCUGGUCAAC dTdT [ss2] | effectively knocked down | inhibited | – | – |
| 5′AACAACAAGGCCAUGG CAGACdTdT [ss1] | effectively knocked down | inhibited | – | – |
